Measured values published in patent EP3375430A1, “FRAGRANCE COMPOSITIONS” (Takasago International Corporation, priority 2017, dated 2018).

Columns and labels:
[1] = Headspace concentration of fragrance ingredients over blotter (thermal desorption GC-MS); assay type: physicochemical; settings: fragrance TAK;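 as to headspace concentration in composition C1 compared to control EdT1: C1 is an invention composition and EdT1 a conventional EdT of fragrance TAK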
Procedure, shortened: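 Fragrance (100µL) applied to a 10 cm perfumers' blotter held on a 32°C hot plate, equilibrated 5 min; headspace drawn through Tenax TA tubes at 17mL/min until 280mL collected, repeated at later sampling times. Tubes thermally desorbed splitless onto HP-5MS column, GC-MS detection, mass range 35 to 350.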

[2] = Amount of fragrance ingredients retained on paper blotter after evaporation (ethanol extraction, GC-MS); assay type: physicochemical
Procedure, shortened: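 100 µL of fragrance formulation applied to paper blotters kept at 32°C open to air; at each time three blotters extracted 1 h in ethanol with methyl decanoate internal standard and analysed by GC-MS (HP-5MS, 50–280°C). Amounts averaged over triplicates and expressed as percent of time-zero level.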

## C=CC(C)(CCC=C(C)C)OC(C)=O (stereo not drawn) [Linalyl acetate]
[1]; T0 + 4h, Figure 3
  headspace concentration in composition C1 compared to control EdT1: significantly greater
[1]; T0+4h and T0+8h, Figures 17 and 18
  headspace concentration in composition C14 compared to control EdT1: significantly greater
[1]; T0+4h and T0+8h, Figures 20 and 21, difference significant for linalool, linalyl acetate and Verdox™
  headspace concentration in composition C15 compared to control EdT1: greater
[1]; T0 + 8h, Figure 4
  headspace concentration in composition C1 compared to control EdT1: much greater
[1]; after 1 hour, Figure 2
  headspace concentration in composition C1 compared to control EdT1: greater
[2]; Table 3, fragrance TAK in C1, 15 min, 32°C
  amount of fragrance ingredient retained on blotter (percentage of the initial amount): 79%
[2]; Table 3, fragrance TAK in C1, 60 min, 32°C
  amount of fragrance ingredient retained on blotter (percentage of the initial amount): 62%
[2]; Table 3, fragrance TAK in C1, 120 min, 32°C
  amount of fragrance ingredient retained on blotter (percentage of the initial amount): 39%
[2]; Table 3, fragrance TAK in C1, 240 min, 32°C
  amount of fragrance ingredient retained on blotter (percentage of the initial amount): 19%
[2]; Table 3, fragrance TAK in C1, 480 min, 32°C
  amount of fragrance ingredient retained on blotter (percentage of the initial amount): 7%
[2]; Table 3, fragrance TAK in EdT1, 15 min, 32°C
  amount of fragrance ingredient retained on blotter (percentage of the initial amount): 70%
[2]; Table 3, fragrance TAK in EdT1, 60 min, 32°C
  amount of fragrance ingredient retained on blotter (percentage of the initial amount): 27%
[2]; Table 3, fragrance TAK in EdT1, 120 min, 32°C
  amount of fragrance ingredient retained on blotter (percentage of the initial amount): 6%
[2]; Table 3, fragrance TAK in EdT1, 240 min, 32°C
  amount of fragrance ingredient retained on blotter (percentage of the initial amount): 2%
[2]; Table 3, fragrance TAK in EdT1, 480 min, 32°C
  amount of fragrance ingredient retained on blotter (percentage of the initial amount): <1%
[2]; Table 3, fragrance TAK in EdT1 or C1, T0, set at 100% (normalisation)
  amount of fragrance ingredient retained on blotter (percentage of the initial amount): 100%
[2]; Table 4, fragrance TAK in C2, 15 min, 32°C
  amount of fragrance ingredient retained on blotter (percentage of the initial amount): 92%
[2]; Table 4, fragrance TAK in C2, 480 min, 32°C
  amount of fragrance ingredient retained on blotter (percentage of the initial amount): 9%
[2]; Table 4, fragrance TAK in EdT1, 15 min, 32°C
  amount of fragrance ingredient retained on blotter (percentage of the initial amount): 72%
[2]; Table 4, fragrance TAK in EdT1, 480 min, 32°C
  amount of fragrance ingredient retained on blotter (percentage of the initial amount): 2%
[2]; Table 4, fragrance TAK in EdT1 or C2, T0, set at 100% (normalisation)
  amount of fragrance ingredient retained on blotter (percentage of the initial amount): 100%
[2]; Table 5, fragrance TAK in C3, 15 min, 32°C
  amount of fragrance ingredient retained on blotter (percentage of the initial amount): 83%
[2]; Table 5, fragrance TAK in C3, 60 min, 32°C
  amount of fragrance ingredient retained on blotter (percentage of the initial amount): 62%
[2]; Table 5, fragrance TAK in C3, 120 min, 32°C
  amount of fragrance ingredient retained on blotter (percentage of the initial amount): 41%
[2]; Table 5, fragrance TAK in C3, 240 min, 32°C
  amount of fragrance ingredient retained on blotter (percentage of the initial amount): 24%
[2]; Table 5, fragrance TAK in C3, 480 min, 32°C
  amount of fragrance ingredient retained on blotter (percentage of the initial amount): 8%
[2]; Table 5, fragrance TAK in C3, 1440 min, 32°C
  amount of fragrance ingredient retained on blotter (percentage of the initial amount): 3%
[2]; Table 5, fragrance TAK in EdT1, 15 min, 32°C
  amount of fragrance ingredient retained on blotter (percentage of the initial amount): 70%
[2]; Table 5, fragrance TAK in EdT1, 60 min, 32°C
  amount of fragrance ingredient retained on blotter (percentage of the initial amount): 26%
[2]; Table 5, fragrance TAK in EdT1, 120 min, 32°C
  amount of fragrance ingredient retained on blotter (percentage of the initial amount): 6%
[2]; Table 5, fragrance TAK in EdT1, 240 min, 32°C
  amount of fragrance ingredient retained on blotter (percentage of the initial amount): 2%
[2]; Table 5, fragrance TAK in EdT1, 480 min, 32°C
  amount of fragrance ingredient retained on blotter (percentage of the initial amount): <1%
[2]; Table 5, fragrance TAK in EdT1, 1440 min, 32°C
  amount of fragrance ingredient retained on blotter (percentage of the initial amount): <1%
[2]; Table 5, fragrance TAK in EdT1 or C3, T0, set at 100% (normalisation)
  amount of fragrance ingredient retained on blotter (percentage of the initial amount): 100%
[2]; Table 6, fragrance TAK in C4, 15 min, 32°C
  amount of fragrance ingredient retained on blotter (percentage of the initial amount): 82%
[2]; Table 6, fragrance TAK in C4, 60 min, 32°C
  amount of fragrance ingredient retained on blotter (percentage of the initial amount): 62%
[2]; Table 6, fragrance TAK in C4, 120 min, 32°C
  amount of fragrance ingredient retained on blotter (percentage of the initial amount): 34%
[2]; Table 6, fragrance TAK in C4, 240 min, 32°C
  amount of fragrance ingredient retained on blotter (percentage of the initial amount): 18%
[2]; Table 6, fragrance TAK in C4, 480 min, 32°C
  amount of fragrance ingredient retained on blotter (percentage of the initial amount): 10%
[2]; Table 6, fragrance TAK in EdT1, 15 min, 32°C
  amount of fragrance ingredient retained on blotter (percentage of the initial amount): 70%
[2]; Table 6, fragrance TAK in EdT1, 60 min, 32°C
  amount of fragrance ingredient retained on blotter (percentage of the initial amount): 27%
[2]; Table 6, fragrance TAK in EdT1, 120 min, 32°C
  amount of fragrance ingredient retained on blotter (percentage of the initial amount): 6%
[2]; Table 6, fragrance TAK in EdT1, 240 min, 32°C
  amount of fragrance ingredient retained on blotter (percentage of the initial amount): 2%
[2]; Table 6, fragrance TAK in EdT1, 480 min, 32°C
  amount of fragrance ingredient retained on blotter (percentage of the initial amount): <1%
[2]; Table 6, fragrance TAK in EdT1 or C4, T0, set at 100% (normalisation)
  amount of fragrance ingredient retained on blotter (percentage of the initial amount): 100%
